From patent US10000476B2, “Pyridone derivative, pharmaceutical containing the same and methods of use thereof” (KAKEN PHARMACEUTICAL CO., LTD., priority 2011, dated 2018)

Tests used:
[1] = tested on: auricular oedema induced by TPA in BALB/c mice; test: Inhibition test of auricular oedema induced by single application of TPA in mouse; assay type: in vivo; settings: 1 w/v % solution applied topically to ear 1 hour before TPA, auricle thickness 6 hours after TPA, read-out: Auricular oedema inhibition rate (%)
Procedure: Inhibition Test of Auricular Oedema Induced by Single Application of TPA (12-O-tetradecanoylphorbol-13-acetate) in Mouse (In Vivo Efficacy Test Based on TNF-α-Related Cutaneous Inflammation)
Auricular oedema was induced by applying 54 μmol/L TPA-acetone solution on both the inner and outer sides of the left ear of BALB/c mice (application volume of 54 μmol/L TPA-acetone solution is 10 μL for each side of the left ear (i.e. 1.08 nmol TPA/auricle)). For a non-induced group, acetone was similarly applied instead of the 54 μmol/L TPA-acetone solution. The test substance was dissolved and prepared in a 1 w/v % solution of acetone containing 10 vol % DMSO (topical administration vehicle), then the test solution was applied onto both the inner and outer sides of the left ear of the mice (application volume of this test solution is 10 μL for each side of the left ear) 1 hour before the TPA application. For a control group, the topical administration vehicle was similarly applied instead of the test substance solution. For an etanercept group, 0.2 mL of a 5 mg/mL etanercept solution was intravenously administered (1 mg/mouse) the day before TPA application and 1.5 hours before TPA application. For a human IgG (hIgG) group (etanercept control group), 0.2 mL of a 5 mg/mL hIgG solution was intravenously administered (1 mg/mouse). Auricle thickness was measured under ether anesthesia the day before TPA application and 6 hours after TPA application for evaluation of the auricular oedema inhibition effect of the test substance based on the increase in auricle thickness as an index.
The auricular oedema inhibition rate (%) of the test substance was calculated based on the following formula using (A) the average value of the increase in auricular thickness of the group administered with the test substance, (B) the average value of the increase in auricular thickness of the non-induced group, and (C) the average value of the increase in auricular thickness of the control group. […]

TACE = TACE (Homo sapiens (Human), UniProt P78536); test: TACE inhibition test (in vitro); assay type: biochemical; settings: fluorescent synthetic substrate, 37° C., 1.5 hours
Sequence of TACE (P78536 215-824): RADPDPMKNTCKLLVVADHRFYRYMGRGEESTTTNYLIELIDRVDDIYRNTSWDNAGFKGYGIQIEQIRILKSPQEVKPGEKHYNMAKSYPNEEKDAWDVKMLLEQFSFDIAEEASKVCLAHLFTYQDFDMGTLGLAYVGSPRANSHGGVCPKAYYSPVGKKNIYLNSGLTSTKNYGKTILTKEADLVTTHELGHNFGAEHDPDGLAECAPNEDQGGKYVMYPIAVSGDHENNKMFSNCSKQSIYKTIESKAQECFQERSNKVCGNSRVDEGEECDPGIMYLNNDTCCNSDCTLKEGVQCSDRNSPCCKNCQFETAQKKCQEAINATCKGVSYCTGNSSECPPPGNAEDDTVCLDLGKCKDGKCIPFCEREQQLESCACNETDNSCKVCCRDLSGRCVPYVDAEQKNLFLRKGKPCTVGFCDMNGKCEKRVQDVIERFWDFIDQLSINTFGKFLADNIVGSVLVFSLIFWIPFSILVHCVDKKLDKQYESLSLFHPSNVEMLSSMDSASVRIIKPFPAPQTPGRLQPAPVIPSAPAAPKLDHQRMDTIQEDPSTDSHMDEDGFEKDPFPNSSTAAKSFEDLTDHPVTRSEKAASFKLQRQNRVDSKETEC
In short: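 Recombinant enzyme (cDNA from THP-1 cells, expressed in mammalian or insect cells) with quenched substrate Nma-Leu-Ala-Gln-Ala-Val-Arg-Ser-Ser-Lys(Dnp)-D-Arg-NH2. Incubated 1.5 h at 37 °C; fluorescence read at ex 355/em 460 nm; IC50 from inhibition rate.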

SMILES	IC50 (TACE) [nM]	inhibition in vivo at 10000 µg/mL [1] [%]
Cc1cccn(CC2(c3ccc(Oc4ccc(F)cc4)cc3)NC(=O)NC2=O)c1=O (stereo not drawn) [Compound I-85]	< 100	78
Cc1cccn(CC2(c3ccc(OC4C=CCCC4)cc3)NC(=O)NC2=O)c1=O (stereo not drawn) [Compound I-36, 5-[4-(cyclohex-2-en-1-yloxy)phenyl]-5-[(3-methyl-2-oxopyridin-1(2H)-yl)methyl]imidazolidine-2,4-dione]	< 100	58
Cc1cccn(CC2(c3ccc(Oc4ccc(Cl)cc4)cc3)NC(=O)NC2=O)c1=O (stereo not drawn) [Compound I-130]		44
Cc1cccn(CC2(c3ccccn3)NC(=O)NC2=O)c1=O (stereo not drawn) [Compound I-7, 5-[(3-methyl-2-oxopyridin-1(2H)-yl)methyl]-5-(pyridin-2-yl)imidazolidine-2,4-dione]	< 100	
Cc1cccn(CC2(c3ccc(Br)cc3)NC(=O)NC2=O)c1=O (stereo not drawn) [Compound I-11, 5-(4-bromophenyl)-5-[(3-methyl-2-oxopyridin-1(2H)-yl)methyl]imidazolidine-2,4-dione]	< 100	
Cc1cccn(CC2(c3ccc4c(c3)CCCO4)NC(=O)NC2=O)c1=O (stereo not drawn) [Compound I-26, 5-(chroman-6-yl)-5-[(3-methyl-2-oxopyridin-1(2H)-yl)methyl]imidazolidine-2,4-dione]	< 100	
COc1ccc(C2(Cn3cccc(C(F)(F)F)c3=O)NC(=O)NC2=O)cc1 (stereo not drawn) [Compound I-141]	< 100	
Cc1cccn(CC2(c3ccsc3)NC(=O)NC2=O)c1=O (stereo not drawn) [Compound I-5, 5-[(3-methyl-2-oxopyridin-1(2H)-yl)methyl]-5-(thiophen-3-yl)imidazolidine-2,4-dione]	< 100	
Cc1cc(C2(Cn3cccc(C)c3=O)NC(=O)NC2=O)ccc1OC1CCCC1 (stereo not drawn) [Compound I-39, 5-[4-(cyclopentyloxy)-3-methylphenyl]-5-[(3-methyl-2-oxopyridin-1(2H)-yl)methyl]imidazolidine-2,4-dione]	< 100	

Further lines, with some results ahead:

IC50 (TACE) [nM]	SMILES	inhibition in vivo at 10000 µg/mL [1] [%]
< 100	Cc1cc(C2(Cn3cccc(C)c3=O)NC(=O)NC2=O)cc(C)c1OC1CCCC1 (stereo not drawn) [Compound I-129]	71
< 100	Cc1cccn(CC2(c3ccc(Oc4cccc(F)c4)cc3)NC(=O)NC2=O)c1=O (stereo not drawn) [Compound I-84]	53
< 100	Cc1cccn(CC2(c3ccc(OC4CCCCC4)cc3)NC(=O)NC2=O)c1=O (stereo not drawn) [Compound I-37, 5-[4-(cyclohexyloxy)phenyl]-5-[(3-methyl-2-oxopyridin-1(2H)-yl)methyl]imidazolidine-2,4-dione]	78
< 100	Cc1cccn(CC2(c3ccc(Sc4ccccc4)cc3)NC(=O)NC2=O)c1=O (stereo not drawn) [Compound I-102]	50
< 100	Cc1ccc(Oc2ccc(C3(Cn4cccc(C)c4=O)NC(=O)NC3=O)cc2)cc1 (stereo not drawn) [Compound I-34, 5-[(3-methyl-2-oxopyridin-1(2H)-yl)methyl]-5-[4-(p-tolyloxy)phenyl]imidazolidine-2,4-dione]	
100 to 1000	C=C(C)c1cccn(CC2(c3ccc(OC)cc3)NC(=O)NC2=O)c1=O (stereo not drawn) [Compound I-144]	
< 100	Cc1cccn(CC2(c3ccncc3)NC(=O)NC2=O)c1=O (stereo not drawn) [Compound I-55]	
< 100	Cc1cc(C2(Cn3cccc(C)c3=O)NC(=O)NC2=O)ccc1OC1C=CCCC1 (stereo not drawn) [Compound I-38]	41
< 100	Cc1cccn(CC2(c3ccc(C#N)cc3)NC(=O)NC2=O)c1=O (stereo not drawn) [Compound I-3, 4-{4-[(3-methyl-2-oxopyridin-1(2H)-yl)methyl]-2,5-dioxoimidazolidine-4-yl}benzonitrile]	
< 100	N#Cc1ccc(C2(Cn3cccc(F)c3=O)NC(=O)NC2=O)cc1 (stereo not drawn) [Compound I-134]	
< 100	O=C1NC(=O)C(Cn2cccc(Br)c2=O)(c2ccc(Cc3ccccc3)cc2)N1 (stereo not drawn) [Compound I-149]	
